In brackets after ≈: the same amount, converted by molar mass.
Columns and labels:
HT-29 = assay: Cytotoxicity against human HT-29 cells; assay type: functional
P388 = assay: Cytotoxicity against mouse P388 cells; assay type: functional, cell-based
A549 = assay: Cytotoxicity against human A549 cells; assay type: functional
P-388 (Mus musculus) = assay: Cytotoxicity against mouse P-388 cells; settings: read-out: ED50 (the source's name)

| SMILES | Activity (HT-29) | Activity (P388) | Activity (A549) | EC50 (HT-29; read-out: ED50 (the source's name)) [µg/mL] | EC50 (P-388 (Mus musculus)) [µg/mL] |
| --- | --- | --- | --- | --- | --- |
| CC1=CC(=O)[C@H]2[C@H]3[C@@H]1[C@@H]1C/C(C)=C\C[C@@H](O)[C@](C)(OC[C@@H]2C)[C@H]3O1 | Not toxic | Not toxic | Not toxic |  |  |
| CC(=O)O[C@@H]1C[C@@H](O)[C@]2(C)OC[C@H](C)[C@H]3C(=O)C=C(C)[C@@H]4[C@H]3[C@@H]2O[C@H]4C[C@@]1(C)O | Not toxic |  | Not toxic |  |  |
| CC1=CC(=O)[C@H]2[C@H]3[C@@H]1[C@@H]1C[C@@](C)(O)[C@H](O)C[C@@H](O)[C@](C)(OC[C@@H]2C)[C@H]3O1 [PACHYCLAVULARIAENONE G] |  |  |  | 3.2 (≈ 8.73 µM) | 0.2 (≈ 0.546 µM) |
| CC(=O)O[C@@H]1C[C@@H](OC(C)=O)[C@](C)(O)C[C@@H]2O[C@H]3[C@@H]4[C@H]2C(C)=CC(=O)[C@@H]4[C@@H](C)CO[C@@]13C | Not toxic |  | Not toxic |  |  |

Reference: ChEMBL document CHEMBL1150659, “Pachyclavulariaenones D-G, new diterpenoids from the soft coral Pachyclavularia violacea” (2002)
